According to publication PMC4926252 (Scientific Reports, 2016):
Like-named read-outs stand apart in the source and are kept apart here.

What was measured:
CtpH-LBD [1] = molecular target: T1, CtpH-LBD (Pseudomonas aeruginosa, UniProt G3XDA3); experiment: biochemical; format: binding; conditions: for binding: titrated with 5 mM ligand
PstS = PstS (Pseudomonas aeruginosa, UniProt G3XDA8); experiment: biochemical; format: binding; conditions: for ΔH: 25 °C, unfolded/refolded PstS, 10 mM Tris/HCl pH 8.0
P. aeruginosa PAO1 [2] = system: P. aeruginosa PAO1
CtpH-LBD [3] = molecular target: T1, CtpH-LBD; conditions: sedimentation velocity and equilibrium, with and without Pi
CtpL-LBD = CtpL-LBD (Pseudomonas aeruginosa, UniProt Q9HUW6); conditions: ITC
Experimental: E. coli BL21 (DE3) containing the expression plasmids were cultured in LB medium supplemented with 50 μg ml^−1 kanamycin at 30 °C until an OD660 of 0.6, at which point 0.1 mM IPTG was added. […] Pellets were resuspended in buffer A (30 mM Tris, 300 mM NaCl, 10 mM imidazole, 5% (v/v) glycerol, pH 7.0) and broken by French press at 1000 psi. […] Protein was diluted to 10 μM and refolded by two consecutive dialyses into 10 mM Tris/HCl, pH 8.0. Aggregated protein corresponding to misfolded species was removed by filtration using 0.22 μm cut-off filters.
The mean enthalpies from the injection of ligands into buffer were subtracted from titration data prior to analysis with the “One binding site model” of ORIGIN following the algorithm described in[51].

CtpH-LBD [4] = molecular target: T1, CtpH-LBD; conditions: CtpH-LBD (51 μM) saturated with 5 mM Pi
P. aeruginosa PAO1 [5] = conditions: cited from earlier work
G3XDA3 [6] = experiment: AUC; sedimentation equilibrium of CtpH-LBD in the presence of Pi; 11,800, 18,100 and 31,000 rpm, 6 °C, polybuffer
G3XDA3 [7] = experiment: AUC; sedimentation velocity of CtpH-LBD in the presence of 500 uM Pi; 45,000 rpm, 6 °C, polybuffer
[8] = molecular target: T2, PstS (PA5369), periplasmic phosphate-binding protein, recombinant (P. aeruginosa, UniProt G3XDA8 25-323); experiment: ITC; 5 uM Pi-loaded PstS in the cell titrated with 80 uM CtpL-LBD; 25 °C; one binding site model; means of three experiments; conditions: both partners purified
T2 construct: also called Pi-loaded PstS; source: E. coli BL21 (DE3), overexpressed, purified (HisTrap)
T2 sequence: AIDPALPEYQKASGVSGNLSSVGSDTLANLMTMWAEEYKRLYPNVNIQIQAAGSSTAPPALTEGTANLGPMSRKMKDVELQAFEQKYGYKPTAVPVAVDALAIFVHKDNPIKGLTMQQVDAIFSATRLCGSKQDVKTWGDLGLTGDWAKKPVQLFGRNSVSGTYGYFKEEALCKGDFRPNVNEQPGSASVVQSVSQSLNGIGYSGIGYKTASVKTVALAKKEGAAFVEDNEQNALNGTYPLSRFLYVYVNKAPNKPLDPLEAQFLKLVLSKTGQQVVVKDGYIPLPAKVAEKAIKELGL

[9] = molecular target: T2, PstS (PA5369), periplasmic …; experiment: AUC; sedimentation velocity, 45,000 rpm, 6 °C, polybuffer; CtpL-LBD and PstS individually and as a mixture; c(s) method; conditions: both partners purified

O=CC(O)COP(=O)(O)O (racemic) [DL-glyceraldehyde 3-phosphate]
KD (CtpH-LBD [1]; pH 7): No binding

O=C(O)[C@H](O)[C@@H](O)[C@H](O)[C@H](O)COP(=O)(O)O [6-phosphogluconate]
KD (CtpH-LBD [1]; pH 7): No binding

Nc1ncnc2c1ncn2[C@@H]1O[C@H](COP(=O)(O)OP(=O)(O)O)[C@@H](O)[C@H]1O [ADP]
Kd (CtpH-LBD [1]): 103000 ± 21000 nM | ΔH (CtpH-LBD [1]; pH 7): -2.7 ± 1 kcal/mol

Nc1ncnc2c1ncn2[C@@H]1O[C@H](COP(=O)(O)O)[C@@H](O)[C@H]1O [AMP]
KD (CtpH-LBD [1]; pH 7): No binding

Nc1ncnc2c1ncn2[C@@H]1O[C@H](COP(=O)(O)OP(=O)(O)OP(=O)(O)O)[C@@H](O)[C@H]1O [ATP]
Kd (PstS): 300 ± 100 nM | ΔH (PstS; ITC): -2.9 ± 0.1 kcal/mol | KD (CtpH-LBD [1]; pH 7): Binding ^1

O=C(CO)[C@@H](O)[C@H](O)[C@H](O)COP(=O)(O)O [D-fructose 6-phosphate]
KD (CtpH-LBD [1]; pH 7): No binding

O=C[C@H](O)[C@@H](O)[C@H](O)[C@H](O)COP(=O)(O)O [D-glucose 6-phosphate]
KD (CtpH-LBD [1]; pH 7): No binding

O=P(O)(O)O [Pi, K2HPO4]
chemotaxis (P. aeruginosa PAO1 [2]; ctpH mutant, 0.01 mM Pi): no significant changes | chemotaxis (P. aeruginosa PAO1 [2]; ctpH mutant, 0.1 and 10 mM Pi): compromised chemotaxis | chemotaxis (P. aeruginosa PAO1 [2]; pstS deletion mutant, low Pi (0.01 and 0.1 mM)): dramatically reduced chemotaxis | chemotaxis (P. aeruginosa PAO1 [2]; pstS mutant, high Pi (10 mM)): did not greatly affect chemotaxis | chemotaxis (P. aeruginosa PAO1 [2]; pstS/ctpH double mutant): only very marginal Pi chemotaxis | Kd (PstS): 7 ± 1 nM | ΔH (PstS; ITC): -5.1 ± 0.1 kcal/mol | binding (PstS; ITC, PstS as purified from E. coli, before unfolding/refolding): no binding | TΔS (PstS; ITC, refolded PstS): 6.0 ± 0.1 kcal/mol | n-value (PstS; ITC, refolded PstS): 0.29 ± 0.02 | effect on oligomeric state of CtpH-LBD (CtpH-LBD [3]): causes CtpH-LBD dimerization | binding (CtpL-LBD; CtpL-LBD denatured, dialyzed and refolded): did not show any Pi binding | KD (CtpL-LBD; conducted at different temperatures): No binding | ΔH of unfolding (CtpH-LBD [4]; without Pi 28.2 kcal/mol): 39.9 + /−1.5 kcal/mol | Tm (CtpH-LBD [4]; without Pi 46.9 °C): 56.6 + /−0.2 °C

O=[As](O)(O)O [arsenate]
KD (CtpH-LBD [1]; ITC, 25 °C, polybuffer pH 7.0): No binding | binding (CtpH-LBD [1]; ITC): did not bind | chemotaxis (P. aeruginosa PAO1 [5]; Pi starved cells): attracted to arsenate

O=[As][O-].[Na+] [arsenite]
KD (CtpH-LBD [1]; ITC, 25 °C, polybuffer pH 7.0): No binding | binding (CtpH-LBD [1]; ITC): did not bind

C=C(OP(=O)(O)O)C(=O)O [phosphoenolpyruvate]
KD (CtpH-LBD [1]; pH 7): No binding

O=P(O)(O)OP(=O)(O)O [pyrophosphate]
Kd (PstS): 2600 ± 300 nM | ΔH (PstS; ITC): -8.3 ± 0.3 kcal/mol | chemotaxis (P. aeruginosa PAO1 [5]; P. aeruginosa): chemotaxis towards millimolar concentrations of pyrophosphate

B1: ligand binding domain of the chemoreceptor CtpH (CtpH-LBD) (protein)
chain: GSLTGDVRAYRELLGGPVRAAQLIDEANLQFRGQVQEWKNVLLRGRQTEAQTKYWSQFEAQERAVQDILGRLGSVAEGELKDRVERLREEHRRLGTAYRQGRQRFLEAGADPIAGDQAVTGIDRATTAQMQTLRDELHQASDLHSSSISAEARRT
N with Pi (G3XDA3 [6]): 2 | N with Pi (G3XDA3 [7]): dimer (39,566 Da) | N with Pi (minor species) (G3XDA3 [7]): tetramer (79,132 Da) | percent of the sedimenting material in the dimer peak, with Pi (G3XDA3 [7]): 86% of the sedimentation material

B2: ligand binding domain of the chemoreceptor CtpL (CtpL-LBD) (domain or fragment, P. aeruginosa, UniProt Q9HUW6 27-324, looked up)
chain: WSQRAMERPFQLLDQYLELSQRFDEQVARNIRQYLGSGDAVRQQAALQALESLAEALPELPPDLARTLAPSLAELREFSAGDLLAAGKLAGDPQGLLLQAERDLTGNLEQWSAYLDAAAGQPQAGAYRTPLLLASLHLTRLSLARAKLVESANPALAGDVERELANLREQAGRIEALPLLGVLDEQRSASDDFAAMMGLAGDAEAGAGNAEDRGVALRRELASLLQRYPDELRRTRDLIERRQQLSADTGARLDAVRQALATLEPQVRGERQRLQGQVRLIQGGMIALILLIALAIDS
notes: Cloned into pET28b(+); Held on a HisTrap column as bait in the pull-down; The discussion gives 286 amino acids for CtpL-LBD, whereas 27-324 is 298 residues; also called PA4844; source: E. coli BL21 (DE3), purified (HisTrap) from the soluble fraction
dH [8]: -3.1 kcal/mol | stoichiometry N [9]: 1
